Laboratory results published in PMC6100082, “Pyridine-Ureas as Potential Anticancer Agents: Synthesis and In Vitro Biological Evaluation” (Molecules : A Journal of Synthetic Chemistry and Natural …, 2018).

What was measured:
Format in all cases: cell-based, human
HL-60(TB) = test: NCI one-dose SRB assay (Leukemia); details: for Growth Percent: 1.00E-5 Molar; for inhibition at 10 µM: Homo sapiens, read-out: Percentage growth inhibition (GI%)
Experimental: (§1) The structures of all the newly prepared pyridine-ureas 8a–n were submitted to the National Cancer Institute (NCI) Developmental Therapeutic Program. Eight compounds 8b, 8d, 8e, 8i, 8j and 8l–n were selected to be examined for their in vitro growth inhibitory activity. The anticancer assays were carried out according to the protocol of the Drug Evaluation Branch, NCI, Bethesda. The selected pyridine-ureas were tested at one dose primary anticancer assay against a panel of approximately 58 cancer lines (concentration 10^−5 M). The tested human cancer cell lines emerged from nine different cancer subtypes: leukemia, colon, melanoma, ovarian, lung, CNS, renal, breast and prostate cancers. The sulforhodamine B (SRB) protein assay was adopted to estimate the cell viability and growth. The results were reported as mean-graph of the percentage growth of the treated cells, and presented as percentage growth inhibition (GI%) caused by the test compounds (Table 2).
(§2) The anticancer assays were performed in accordance with the protocol of the Drug Evaluation Branch, NCI, Bethesda. A 48 h drug exposure protocol was used and sulforhodamine B (SRB) protein assay was applied to estimate the cell viability and growth, as reported earlier.

MOLT-4 = test: NCI one-dose SRB assay (Leukemia); details: for inhibition at 10 µM: Homo sapiens, MOLT-4, 10 μM, read-out: Percentage growth inhibition (GI%); for Growth Percent: MOLT-4, 1.00E-5 Molar
Experimental: as §1, §2

RPMI-8226 = test: NCI one-dose SRB assay (Leukemia); details: for inhibition at 10 µM: Homo sapiens, RPMI-8226, 10 μM, read-out: Percentage growth inhibition (GI%); for Growth Percent: RPMI-8226, 1.00E-5 Molar
Experimental: as §1, §2

K-562 = test: NCI one-dose SRB assay (Leukemia); details: for inhibition at 10 µM: Homo sapiens, K562, K-562, 10 μM, read-out: Percentage growth inhibition (GI%); for Growth Percent: K-562, 1.00E-5 Molar
Experimental: as §1, §2

SR = test: NCI one-dose SRB assay (Leukemia); details: for Growth Percent: 1.00E-5 Molar; for inhibition at 10 µM: Homo sapiens, read-out: Percentage growth inhibition (GI%)
Experimental: as §1, §2

CCRF-CEM = test: NCI one-dose SRB assay (Leukemia); details: for Growth Percent: 1.00E-5 Molar; for inhibition at 10 µM: Homo sapiens, read-out: Percentage growth inhibition (GI%)
Experimental: as §1, §2

OVCAR-8 = test: NCI one-dose SRB assay (Ovarian Cancer); details: for inhibition at 10 µM: Homo sapiens, OVCAR-8, 10 μM, read-out: Percentage growth inhibition (GI%); for Growth Percent: OVCAR-8, 1.00E-5 Molar
Experimental: as §1, §2

OVCAR-5 = test: NCI one-dose SRB assay (Ovarian Cancer); details: for inhibition at 10 µM: Homo sapiens, OVCAR-5, 10 μM, read-out: Percentage growth inhibition (GI%); for Growth Percent: OVCAR-5, 1.00E-5 Molar
Experimental: as §1, §2

OVCAR-4 = test: NCI one-dose SRB assay (Ovarian Cancer); details: for inhibition at 10 µM: Homo sapiens, OVCAR-4, 10 μM, read-out: Percentage growth inhibition (GI%); for Growth Percent: OVCAR-4, 1.00E-5 Molar
Experimental: as §1, §2

NCI/ADR-RES = test: NCI one-dose SRB assay (Ovarian Cancer); details: for Growth Percent: 1.00E-5 Molar; for inhibition at 10 µM: Homo sapiens, read-out: Percentage growth inhibition (GI%)
Experimental: as §1, §2

IGROV1 = test: NCI one-dose SRB assay (Ovarian Cancer); details: for inhibition at 10 µM: Homo sapiens, IGROV-1, IGROV1, 10 μM, read-out: Percentage growth inhibition (GI%); for Growth Percent: IGROV1, 1.00E-5 Molar
Experimental: as §1, §2

OVCAR-3 = test: NCI one-dose SRB assay (Ovarian Cancer); details: for inhibition at 10 µM: Homo sapiens, OVCAR-3, 10 μM, read-out: Percentage growth inhibition (GI%); for Growth Percent: OVCAR-3, 1.00E-5 Molar
Experimental: as §1, §2

SK-OV-3 = test: NCI one-dose SRB assay (Ovarian Cancer); details: for inhibition at 10 µM: Homo sapiens, SK-OV-3, 10 μM, read-out: Percentage growth inhibition (GI%); for Growth Percent: SK-OV-3, 1.00E-5 Molar
Experimental: as §1, §2

SF-295 = test: NCI one-dose SRB assay (CNS Cancer); details: for inhibition at 10 µM: Homo sapiens, SF-295, 10 μM, read-out: Percentage growth inhibition (GI%); for Growth Percent: SF-295, 1.00E-5 Molar
Experimental: as §1, §2

SF-268 = test: NCI one-dose SRB assay (CNS Cancer); details: for inhibition at 10 µM: Homo sapiens, SF-268, 10 μM, read-out: Percentage growth inhibition (GI%); for Growth Percent: SF-268, 1.00E-5 Molar
Experimental: as §1, §2

SNB-19 = test: NCI one-dose SRB assay (CNS Cancer); details: for inhibition at 10 µM: Homo sapiens, SNB-19, 10 μM, read-out: Percentage growth inhibition (GI%); for Growth Percent: SNB-19, 1.00E-5 Molar
Experimental: as §1, §2

SF-539 = test: NCI one-dose SRB assay (CNS Cancer); details: for inhibition at 10 µM: Homo sapiens, SF-539, 10 μM, read-out: Percentage growth inhibition (GI%); for Growth Percent: SF-539, 1.00E-5 Molar
Experimental: as §1, §2

SNB-75 = test: NCI one-dose SRB assay (CNS Cancer); details: for inhibition at 10 µM: Homo sapiens, SNB-75, 10 μM, read-out: Percentage growth inhibition (GI%); for Growth Percent: SNB-75, 1.00E-5 Molar
Experimental: as §1, §2

U251 = test: NCI one-dose SRB assay (CNS Cancer); details: for inhibition at 10 µM: Homo sapiens, U-251, U251, 10 μM, read-out: Percentage growth inhibition (GI%); for Growth Percent: U251, 1.00E-5 Molar
Experimental: as §1, §2

NCI 58 cell line panel = test: NCI one-dose SRB assay, whole panel / subpanel summary; details: for inhibition at 10 µM: Homo sapiens, one dose, read-out: mean inhibition (mean % growth inhibition over NCI 58 cell line panel); for Mean Growth Percent: One Dose Mean Graph, 1.00E-5 Molar
Experimental: as §1, §2

RXF 393 = test: NCI one-dose SRB assay (Renal Cancer); details: for inhibition at 10 µM: Homo sapiens, RXF 393, 10 μM, read-out: Percentage growth inhibition (GI%); for Growth Percent: RXF 393, 1.00E-5 Molar
Experimental: as §1, §2

A498 = test: NCI one-dose SRB assay (Renal Cancer); details: for Growth Percent: A498, 1.00E-5 Molar; for inhibition at 10 µM: Homo sapiens, A498, 10 μM, read-out: Percentage growth inhibition (GI%)
Experimental: as §1, §2

786-0 = test: NCI one-dose SRB assay (Renal Cancer); details: for Growth Percent: 786-0, 1.00E-5 Molar; for inhibition at 10 µM: Homo sapiens, 786-0, 10 μM, read-out: Percentage growth inhibition (GI%)
Experimental: as §1, §2

SN12C = test: NCI one-dose SRB assay (Renal Cancer); details: for Growth Percent: 1.00E-5 Molar; for inhibition at 10 µM: Homo sapiens, read-out: Percentage growth inhibition (GI%)
Experimental: as §1, §2

TK-10 = test: NCI one-dose SRB assay (Renal Cancer); details: for inhibition at 10 µM: Homo sapiens, TK-10, 10 μM, read-out: Percentage growth inhibition (GI%); for Growth Percent: TK-10, 1.00E-5 Molar
Experimental: as §1, §2

UO-31 = test: NCI one-dose SRB assay (Renal Cancer); details: for inhibition at 10 µM: Homo sapiens, UO-31, 10 μM, read-out: Percentage growth inhibition (GI%); for Growth Percent: UO-31, 1.00E-5 Molar
Experimental: as §1, §2

`COc1ccc(-c2ccc(NC(=O)Nc3ccc(Cl)c(C(F)(F)F)c3)c(C)n2)cc1` [Compound 8e, 1-(4-Chloro-3-(trifluoromethyl)phenyl)-3-(6-(4-methoxyphenyl)-2-methylpyridin-3-yl)urea] was tested, and the “Growth Percent” value (HL-60(TB)) was 32.27%, the inhibition at 10 µM (HL-60(TB)) was 68% and the inhibition at 10 µM (MOLT-4) was 76%. For the same molecule, the “Growth Percent” value (MOLT-4) was 24.60%, the inhibition at 10 µM (RPMI-8226) was 91% and the “Growth Percent” value (RPMI-8226) was 9.87%. For the same molecule, the inhibition at 10 µM (K-562) was 84%, the “Growth Percent” value (K-562) was 16.70% and the “Growth Percent” value (SR) was 35.68%. For the same molecule, the inhibition at 10 µM (SR) was 65%, the “Growth Percent” value (CCRF-CEM) was 29.88% and the inhibition at 10 µM (CCRF-CEM) was 71%. For the same molecule, the inhibition at 10 µM (OVCAR-8) was 43%, the “Growth Percent” value (OVCAR-8) was 57.40% and the inhibition at 10 µM (OVCAR-5) was 11%. The “Growth Percent” value (OVCAR-5) was 89.11%, the inhibition at 10 µM (OVCAR-4) was 55% and the “Growth Percent” value (OVCAR-4) was 45.11%. The “Growth Percent” value (NCI/ADR-RES) was 49.78%, the inhibition at 10 µM (NCI/ADR-RES) was 51% and the inhibition at 10 µM (IGROV1) was 48%. The “Growth Percent” value (IGROV1) was 52.86%, the inhibition at 10 µM (OVCAR-3) was 73% and the “Growth Percent” value (OVCAR-3) was 27.65%. For the same molecule, the inhibition at 10 µM (SK-OV-3) was 32%, the “Growth Percent” value (SK-OV-3) was 68.11% and the inhibition at 10 µM (SF-295) was 54%. The “Growth Percent” value (SF-295) was 46.97%, the inhibition at 10 µM (SF-268) was 27% and the “Growth Percent” value (SF-268) was 73.73%. For the same molecule, the inhibition at 10 µM (SNB-19) was 43%, the “Growth Percent” value (SNB-19) was 57.33% and the inhibition at 10 µM (SF-539) was 19%. For the same molecule, the “Growth Percent” value (SF-539) was 81.32%, the inhibition at 10 µM (SNB-75) was 27% and the “Growth Percent” value (SNB-75) was 73.44%. The inhibition at 10 µM (U251) was 67%, the “Growth Percent” value (U251) was 33.63% and the inhibition at 10 µM (NCI 58 cell line panel) was 49%. For the same molecule, the “Mean Growth Percent” value (NCI 58 cell line panel) was 51.42%, the inhibition at 10 µM (RXF 393) was 19% and the “Growth Percent” value (RXF 393) was 81.37%. For the same molecule, the “Growth Percent” value (A498) was 57.74%, the inhibition at 10 µM (A498) was 43% and the “Growth Percent” value (786-0) was 56.08%. For the same molecule, the inhibition at 10 µM (786-0) was 44%, the “Growth Percent” value (SN12C) was 57.41% and the inhibition at 10 µM (SN12C) was 43%. The inhibition at 10 µM (TK-10) was 35%, the “Growth Percent” value (TK-10) was 65.92% and the inhibition at 10 µM (UO-31) was 61%. The “Growth Percent” value (UO-31) was 39.33%.
For `COc1ccc(-c2ccc(NC(=O)Nc3cccc(C(F)(F)F)c3)c(C)n2)cc1OC` [Compound 8i, 1-(6-(3,4-Dimethoxyphenyl)-2-methylpyridin-3-yl)-3-(3-(trifluoromethyl)phenyl) Urea], the “Growth Percent” value (HL-60(TB)) was 61.08%, the inhibition at 10 µM (HL-60(TB)) was 39% and the inhibition at 10 µM (MOLT-4) was 61%. For the same molecule, the “Growth Percent” value (MOLT-4) was 39.58%, the inhibition at 10 µM (RPMI-8226) was 66% and the “Growth Percent” value (RPMI-8226) was 34.61%. The inhibition at 10 µM (K-562) was 69%, the “Growth Percent” value (K-562) was 31.93% and the “Growth Percent” value (SR) was 51.13%. The inhibition at 10 µM (SR) was 49%, the “Growth Percent” value (CCRF-CEM) was 50.94% and the inhibition at 10 µM (CCRF-CEM) was 50%. For the same molecule, the inhibition at 10 µM (OVCAR-8) was 19%, the “Growth Percent” value (OVCAR-8) was 81.32% and the inhibition at 10 µM (OVCAR-5) was under 10%. The “Growth Percent” value (OVCAR-5) was 94.03%, the inhibition at 10 µM (OVCAR-4) was 41% and the “Growth Percent” value (OVCAR-4) was 59.07%. For the same molecule, the “Growth Percent” value (NCI/ADR-RES) was 66.87%, the inhibition at 10 µM (NCI/ADR-RES) was 34% and the inhibition at 10 µM (IGROV1) was under 10%. For the same molecule, the “Growth Percent” value (IGROV1) was 91.46%, the inhibition at 10 µM (OVCAR-3) was 31% and the “Growth Percent” value (OVCAR-3) was 69.16%. For the same molecule, the inhibition at 10 µM (SK-OV-3) was under 10%, the “Growth Percent” value (SK-OV-3) was 101.37% and the inhibition at 10 µM (SF-295) was 35%. The “Growth Percent” value (SF-295) was 65.28%, the inhibition at 10 µM (SF-268) was 25% and the “Growth Percent” value (SF-268) was 75.96%. For the same molecule, the inhibition at 10 µM (SNB-19) was 22%, the “Growth Percent” value (SNB-19) was 78.84% and the inhibition at 10 µM (SF-539) was 23%. For the same molecule, the “Growth Percent” value (SF-539) was 77.24%, the inhibition at 10 µM (SNB-75) was 34% and the “Growth Percent” value (SNB-75) was 66.71%. The inhibition at 10 µM (U251) was 37%, the “Growth Percent” value (U251) was 63.88% and the inhibition at 10 µM (NCI 58 cell line panel) was 22 to 34%. The “Mean Growth Percent” value (NCI 58 cell line panel) was 67.33%, the inhibition at 10 µM (RXF 393) was 23% and the “Growth Percent” value (RXF 393) was 77.55%. For the same molecule, the “Growth Percent” value (A498) was 61.34%, the inhibition at 10 µM (A498) was 39% and the “Growth Percent” value (786-0) was 69.08%. The inhibition at 10 µM (786-0) was 31%, the “Growth Percent” value (SN12C) was 79.32% and the inhibition at 10 µM (SN12C) was 21%. The inhibition at 10 µM (TK-10) was 21%, the “Growth Percent” value (TK-10) was 79.75% and the inhibition at 10 µM (UO-31) was 26%. For the same molecule, the “Growth Percent” value (UO-31) was 74.95%.
